Like-named read-outs stand apart in the source and are kept apart here. Starred links: 1 amine or outer side, 2 acyl side, 3 side chain; linkers in the order of their positions; H or OH if unused. Non-standard residues stand in square brackets, D forms with d. Residues, ends and D or L forms follow the SMILES beside them. Groups on a side chain read outwards from the residue. *: point of attachment. C20 diacid = O=C(O)CCCCCCCCCCCCCCCCCCC(=O)*; γGlu = O=C(O)[C@H](CCC(=O)[*:2])N[*:1]; Nle = CCCC[C@H](N)C(=O)O; AEEA = NCCOCCOCC(=O)O; Aib = CC(C)(N)C(=O)O
Tests used:
[1] = Thioflavin T fibril formation assay of purified peptides; type: physicochemical; parameters: key: Amyloid fibril formation detected by an increase in ThT fluorescence was denoted with "Yes"; samples without increasing ThT fluorescence hence not forming amyloid fibrils were denoted "No"
In short: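 Fibril formation read as rising ThT emission at 480 nm (450 nm excitation), 4 µM ThT, over 96 h at 40°C with alternating 5-min rest and 700 rpm shaking cycles, in triplicate. Samples were 200 µM compound in 50 mM phosphate at various pH values, or co-formulated at 200 µM in semaglutide product at pH 7.4.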

hCRHR1 = biological target: T1, hCRHR1 (Homo sapiens, UniProt P34998); test: HTRF cAMP assay, determination of hCRHR1 potency (peptide libraries 5 conc., purified peptides 11 conc.); type: cell-based; conditions: read-out: hCRHR1 EC50
T1 sequence (P34998 24-415): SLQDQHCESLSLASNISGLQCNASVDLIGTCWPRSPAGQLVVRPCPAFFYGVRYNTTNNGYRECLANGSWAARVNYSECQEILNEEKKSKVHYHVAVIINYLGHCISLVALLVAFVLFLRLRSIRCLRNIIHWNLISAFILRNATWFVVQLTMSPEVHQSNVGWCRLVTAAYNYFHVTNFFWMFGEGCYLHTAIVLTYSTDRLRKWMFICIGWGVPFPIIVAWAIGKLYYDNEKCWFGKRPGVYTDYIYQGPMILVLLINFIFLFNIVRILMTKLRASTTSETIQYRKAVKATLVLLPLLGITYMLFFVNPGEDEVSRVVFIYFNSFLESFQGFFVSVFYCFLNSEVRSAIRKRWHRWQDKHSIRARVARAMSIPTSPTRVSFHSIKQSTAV
In short: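 Cellular cAMP was read by time-resolved FRET between d2-labelled cAMP and cryptate anti-cAMP antibody. The cells were freshly thawed suspension CHO-K1 cells stably expressing human CRHR1.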

[2] = pH 7.5
hCRHR2 = biological target: T2, hCRHR2 (Homo sapiens, UniProt Q13324); test: HTRF cAMP assay, determination of hCRHR2 potency (peptide libraries 5 conc., purified peptides 11 conc.); type: cell-based; conditions: for EC50: read-out: hCRHR2 EC50
T2 sequence (Q13324 1-411): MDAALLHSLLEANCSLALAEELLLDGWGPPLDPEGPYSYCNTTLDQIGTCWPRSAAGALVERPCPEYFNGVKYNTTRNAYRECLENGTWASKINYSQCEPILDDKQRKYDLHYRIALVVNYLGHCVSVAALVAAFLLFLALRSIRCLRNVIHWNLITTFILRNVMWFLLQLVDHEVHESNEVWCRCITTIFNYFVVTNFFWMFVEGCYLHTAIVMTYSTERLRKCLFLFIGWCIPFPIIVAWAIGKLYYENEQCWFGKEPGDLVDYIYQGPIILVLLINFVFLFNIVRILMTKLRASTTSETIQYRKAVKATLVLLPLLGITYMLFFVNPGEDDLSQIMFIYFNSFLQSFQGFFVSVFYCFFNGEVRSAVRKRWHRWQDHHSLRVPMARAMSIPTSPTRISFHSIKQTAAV
In short: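 Frozen stocks of hCRHR2-expressing CHO-K1 cells, thawed just before testing, received peptide agonists in suspension; cAMP quantified by competitive HTRF immunoassay, with curves fitted by nonlinear regression (variable slope) for EC50.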

PK in rats = type: in vivo; parameters: T½ / MRT: unit not given here; conditions: Rat
Method: Lean male Sprague Dawley rats (RJHan:SD) were obtained from JanVier (JanVier Labs, France) at 7 weeks of age. The animals were pair housed until randomization under a 12/12 h dark-light cycle, light off at 3 PM. Room temperature was controlled to 22°C ± 1°C, with 60 % ± 20% humidity.
Animals had ad libitum access to regular rodent chow (Altromin 1324, Brogaarden, Denmark) and tap water.
After 2 weeks of acclimatization, the animals were single housed and randomized into treatment groups (n = 3 per group) based on body weight on study day -3. On study day 1, animals were dosed 50 nmol/kg IV and SC in combination of two peptides. Plasma samples were collected for PK analysis at times 0.17, 1, 3, 6, 24, 30, 48, 72 and 96 hours post dosing. Plasma samples were analyzed using LC-MSMS and PK parameters were estimated by Non-Compartmental Analysis (NCA).

[3] = Chemical stability of purified peptides (RP-UHPLC main peak purity loss); type: physicochemical
In short: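 Purity loss is the drop in RP-UHPLC main-peak area fraction (215 nm detection, C8 column at 50 °C) from time zero to day 14 and/or day 28 at 40 °C. Samples held roughly 1.0 mg/ml peptide in 50 mM phosphate, pH 7.5, with other pH targets also tested.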

[4] = Dynamic Light Scattering (DLS) of peptide oligomerisation/particle formation; type: physicochemical; conditions: average of three replica
Method: Samples were prepared by dissolving 800 nmol of each peptide in 400 µl 50 mM phosphate pH 8.0 to a concentration of 2000 µM (ca 10 mg/ml). After fully dissolution for 2 hours on a rocking table, samples were adjusted to pH 7.5 and filtrated through a 0.2 µm Whatman Anotop filter. Comparators were commercially available liraglutide drug product (Victoza®, Novo Nordisk) pH 8.2, and an aliquot of this drug product adjusted to pH 6.7. These samples were filtrated through a 0.02 µm Whatman Anotop filter.
Samples were pipetted as triplicate of 30 µl to an Aurora 384 well microtiter plate, which was centrifuged for 2 minutes at 2200 rpm and then sealed with a Thermo sealing tape 235307. DLS measurements were done in a Wyatt DynaPro platereader III with the following parameters:
The microtiter plate was incubated in a Grant-bio Thermo Shaker PHMP-4 at 40°C with 700 rpm continuous shaking before subsequent DLS measurements. Data analysis was done using Wyatt Dynamics software ver. 7.10.1.21.
Samples were prepared and measured as described in procedure. The hydrodynamic radii (Rh) and associated polydispersity (PD) resulting from cumulant analysis (assuming one species) are shown in the Table 8 as averages of three replica. T0 indicates the measurement at time zero after sample preparation; T5 indicates the measurements of five days of incubation as described above.

[5] = purified peptides, CHO-K1 cells stably expressing hCRHR1, cAMP HTRF
[6] = purified peptides, CHO-K1 cells stably expressing hCRHR2, cAMP HTRF
[7] = pH 7.5, 40°C, 14 days, first value of cell
[8] = pH 7.5, 40°C, 28 days, second value of cell
[9] = T0, time zero after sample preparation
[10] = T5, five days incubation at 40°C with continuous shaking

Molecule | Fibrillation (pH 7.5) ([1]; pH 7.5, ThT assay) | EC50 (hCRHR1; [5]) | Solubility pH 7.5, target conc. =10 mg/mL (measured mg/mL) [2] | Selectivity ratio (hCRHR1/ hCRHR2) (hCRHR2; hCRHR1-EC50/hCRHR2-EC50) | EC50 (hCRHR2; [6]) | MRT (PK in rats) | T½ (PK in rats) | Chemical stability at pH 7.5 after 14 days at 40°C (% degradation) [3, 7] | Chemical stability at pH 7.5 after 28 days at 40°C (% degradation) [3, 8] | PD (%) [4, 9] | Rh (nm) [4, 9] | PD (%) [4, 10] | Rh (nm) [4, 10] | Fibrillation (pH 7.5) ([1]; pH 7.5) | EC50 (hCRHR1; Table 5, purified peptides) | Selectivity ratio (hCRHR1/ hCRHR2) (hCRHR2; Table 5) | EC50 (hCRHR2; Table 5, purified peptides) | Chemical stability at pH 7.5 after 14 days at 40°C (% degradation) ([3]; pH 7.5, 14 days, 40°C) | Chemical stability at pH 7.5 after 28 days at 40°C (% degradation) ([3]; pH 7.5, 28 days, 40°C)
CC[C@H](C)[C@H](N)C(=O)N[C@H](C(=O)N[C@@H](CC(C)C)C(=O)N[C@@H](CO)C(=O)N[C@@H](CC(C)C)C(=O)N[C@@H](CC(=O)O)C(=O)N[C@H](C(=O)N1CCC[C@H]1C(=O)N[C@H](C(=O)NCC(=O)N[C@@H](CC(C)C)C(=O)N[C@@H](CC(C)C)C(=O)N[C@@H](CCC(N)=O)C(=O)N[C@H](C(=O)N[C@@H](CC(C)C)C(=O)N[C@@H](CC(C)C)C(=O)N[C@@H](CCC(=O)O)C(=O)N[C@@H](CCC(N)=O)C(=O)N[C@@H](C)C(=O)N[C@@H](CCCNC(=N)N)C(=O)N[C@@H](C)C(=O)N[C@@H](CCCNC(=N)N)C(=O)N[C@@H](C)C(=O)N[C@@H](C)C(=O)N[C@@H](CCCNC(=N)N)C(=O)N[C@@H](CCC(=O)O)C(=O)N[C@@H](CCC(N)=O)C(=O)N[C@@H](C)C(=O)N[C@@H](CCCCNC(=O)COCCOCCNC(=O)COCCOCCNC(=O)CC[C@H](NC(=O)CC[C@H](NC(=O)CCCCCCCCCCCCCCCCCCC(=O)O)C(=O)O)C(=O)O)C(=O)N[C@H](C(=O)N[C@@H](CC(N)=O)C(=O)NC(C)(C)C(=O)N[C@@H](CCC(=O)O)C(=O)N[C@H](C(=O)N[C@@H](CC(C)C)C(=O)N[C@@H](C)C(=O)N[C@@H](CCC(=O)O)C(=O)N[C@H](C(N)=O)C(C)C)[C@@H](C)CC)[C@@H](C)O)[C@@H](C)CC)[C@@H](C)CC)C(C)C)C(C)C [SEQ ID NO: 15] (H-IVLSLDVPIGLLQILLEQARARAAREQAK([AEEA-AEEA-γGlu-γGlu-C20 diacid])TN[Aib]EILAEV-NH2) | No | > 5000 nM | 9.8 mg/mL | >2174 | 2.3 nM | 8 | 7.7 | -1.0% | -1.2% |  |  |  |  |  |  |  |  |  | 
Liraglutide pH 8.2 |  |  |  |  |  |  |  |  |  | 1.4% | 2.1 nm | 3.8% | 2.1 nm |  |  |  |  |  | 
liraglutide |  |  |  |  |  |  |  |  |  | 6.0% | 2.5 nm | Multimodal | 5.6 nm |  |  |  |  |  | 
CCCC[C@H](NC(=O)[C@@H](NC(=O)[C@H](CCC(=O)O)NC(=O)C(C)(C)NC(=O)[C@H](CC(N)=O)NC(=O)[C@@H](NC(=O)[C@H](CCCCNC(=O)COCCOCCNC(=O)COCCOCCNC(=O)CC[C@H](NC(=O)CC[C@H](NC(=O)CCCCCCCCCCCCCCCCCCC(=O)O)C(=O)O)C(=O)O)NC(=O)[C@H](C)NC(=O)[C@H](CCC(N)=O)NC(=O)[C@H](CCC(=O)O)NC(=O)[C@H](CCCNC(=N)N)NC(=O)[C@H](C)NC(=O)[C@H](C)NC(=O)[C@H](CCCNC(=N)N)NC(=O)[C@H](C)NC(=O)[C@H](CCCNC(=N)N)NC(=O)[C@H](C)NC(=O)[C@H](CCC(N)=O)NC(=O)[C@H](CO)NC(=O)[C@H](CC(C)C)NC(=O)[C@H](CC(C)C)NC(=O)[C@@H](NC(=O)[C@H](CCC(N)=O)NC(=O)[C@H](CC(C)C)NC(=O)[C@H](CC(C)C)NC(=O)CNC(=O)[C@@H](NC(=O)[C@@H]1CCCN1C(=O)[C@@H](NC(=O)[C@H](CC(=O)O)NC(=O)[C@H](CC(C)C)NC(=O)[C@H](CO)NC(=O)[C@H](CC(C)C)NC(=O)[C@@H](NC(=O)[C@@H](N)[C@@H](C)CC)C(C)C)C(C)C)[C@@H](C)CC)[C@@H](C)CC)[C@@H](C)O)[C@@H](C)CC)C(=O)N[C@@H](C)C(=O)N[C@@H](CCC(=O)O)C(=O)N[C@H](C(N)=O)C(C)C [compound 234] (H-IVLSLDVPIGLLQILLSQARARAAREQAK([AEEA-AEEA-γGlu-γGlu-C20 diacid])TN[Aib]EI[Nle]AEV-NH2) |  |  | 11 mg/mL |  |  | 5.1 | 4.1 |  |  |  |  |  |  | No | > 5000 nM | >6250 | 0.8 nM | -0.43% | -1.1%
CC[C@H](C)[C@H](N)C(=O)N[C@H](C(=O)N[C@@H](CC(C)C)C(=O)N[C@@H](CO)C(=O)N[C@@H](CC(C)C)C(=O)N[C@@H](CC(=O)O)C(=O)N[C@H](C(=O)N1CCC[C@H]1C(=O)N[C@H](C(=O)NCC(=O)N[C@@H](CC(C)C)C(=O)N[C@@H](CC(C)C)C(=O)N[C@@H](CCC(N)=O)C(=O)N[C@H](C(=O)N[C@@H](CC(C)C)C(=O)N[C@@H](CC(C)C)C(=O)N[C@@H](CCC(=O)O)C(=O)N[C@@H](CCC(N)=O)C(=O)N[C@@H](C)C(=O)N[C@@H](CCCNC(=N)N)C(=O)N[C@@H](C)C(=O)N[C@@H](CCCNC(=N)N)C(=O)N[C@@H](C)C(=O)N[C@@H](C)C(=O)N[C@@H](CCCNC(=N)N)C(=O)N[C@@H](CCC(=O)O)C(=O)N[C@@H](CCC(N)=O)C(=O)N[C@@H](C)C(=O)N[C@@H](CCCCNC(=O)COCCOCCNC(=O)COCCOCCNC(=O)CC[C@H](NC(=O)CC[C@H](NC(=O)CCCCCCCCCCCCCCCCCCC(=O)O)C(=O)O)C(=O)O)C(=O)N[C@H](C(=O)N[C@@H](CC(N)=O)C(=O)N[C@H](C(=O)N[C@@H](CCC(=O)O)C(=O)N[C@H](C(=O)N[C@@H](CC(C)C)C(=O)N[C@@H](C)C(=O)N[C@@H](CCC(=O)O)C(=O)N[C@H](C(N)=O)C(C)C)[C@@H](C)CC)C(C)C)[C@@H](C)O)[C@@H](C)CC)[C@@H](C)CC)C(C)C)C(C)C [SEQ ID NO: 14] (H-IVLSLDVPIGLLQILLEQARARAAREQAK([AEEA-AEEA-γGlu-γGlu-C20 diacid])TNVEILAEV-NH2) | No | > 5000 nM | 9.2 mg/mL | > 1000 | 5 nM | 6.1 | 5.1 | -0.3% | -1.2% |  |  |  |  |  |  |  |  |  | 

Source: patent EP4810052A2, “HCRHR2 SELECTIVE POLYPEPTIDES” (Gubra A/S, priority 2023, dated 2026)
